How the values were obtained:
[1] = system: human gastric cancer strain GSU; type: cell-based
Outline: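 Cells seeded at 200 per well in RPMI-1640 with 10% FBS onto serially diluted compound (DMSO) in U-bottom plates. Viability read by CellTiter-Glo luminescence.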

[2] = system: human bladder cancer strain UM-UC-3; type: cell-based
Outline: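 UM-UC-3 human bladder cancer cells were seeded at 250 cells/well onto serially diluted compound in MEM with 10% FBS. Viability was read as CellTiter-Glo luminescence.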

[3] = system: human colorectal cancer strain GP2d; type: cell-based
Outline: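 Cells seeded at 500 cells/well in DMEM with 10% FBS onto serially diluted compound in DMSO, then cultured 7 days at 37°C, 5% CO2. Viability read by CellTiter-Glo luminescence.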

[4] = molecular target: GDP-bound NRAS wild-type protein (Homo sapiens, UniProt P01111); assay: Binding to NRAS by surface plasmon resonance (SPR), KD and KD ratio to KRAS; conditions: ratio of KD for GDP-bound NRAS wild-type protein to KD for KRAS
Outline: (§1)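 Measured at 30°C: SPR with GDP-loaded, E. coli-expressed biotin-Avi RAS captured (~100–300 RU), ascending 75 s compound injections, HBS pH 7.4 with GDP, MgCl2, 4% DMSO. KD from 1:1 fit.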

[5] = system: human pancreatic cancer strain KP4; type: cell-based
Outline: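 KP4 pancreatic cancer cells seeded at 500 cells/well in DMEM/Ham's F-12 with 10% FBS onto serially diluted compound. Viability read by CellTiter-Glo luminescence.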

[6] = system: human lung cancer strain NCI-H441; type: cell-based
Outline: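 Signal came from […] measured per well once the reagent was added. Beforehand, cells were cultured at 37°C and 5% carbon dioxide on a compound series serially diluted in dimethyl sulfoxide.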

[7] = system: human ovarian cancer strain OV7; type: cell-based
Outline: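 OV7 cells, 250 per well, in DMEM/Ham's F-12 with 5% FBS, 0.5 µg/mL hydrocortisone and 10 µg/mL insulin, grown 7 days at 37°C with serially diluted compound. Viability by CellTiter-Glo luminescence.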

HRAS wild-type protein = HRAS wild-type protein (Homo sapiens, UniProt P01112); assay: Binding to HRAS by surface plasmon resonance (SPR), KD and KD ratio to KRAS; conditions: ratio of KD for HRAS wild-type protein to KD for KRAS
Outline: as §1

[8] = molecular target: GDP-bound KRAS wild-type protein (Homo sapiens, UniProt P01116); assay: Binding to KRAS by surface plasmon resonance (SPR), dissociation constant KD
Outline: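 Biotinylated GDP-bound RAS was captured at about 100–300 RU. Running buffer: HBS pH 7.4, 10 mM MgCl2, 10 µM GDP, 1 mM DTT, 0.01% Tween 20, 4% DMSO.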

[9] = system: human gastric cancer strain SNU-1; type: cell-based
Outline: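 SNU-1 gastric cancer cells, 250 cells/well in RPMI-1640 with 10% FBS, glucose, HEPES and sodium pyruvate, plated onto serially diluted compound in DMSO.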

Chain of GDP-bound NRAS wild-type protein (P01111 whole entry): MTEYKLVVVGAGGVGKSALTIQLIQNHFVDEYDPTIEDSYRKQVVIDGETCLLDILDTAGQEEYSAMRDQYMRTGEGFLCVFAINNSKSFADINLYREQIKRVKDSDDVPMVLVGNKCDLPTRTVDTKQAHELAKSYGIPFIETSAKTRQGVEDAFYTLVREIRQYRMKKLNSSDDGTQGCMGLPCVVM
Chain of HRAS wild-type protein (P01112 whole entry): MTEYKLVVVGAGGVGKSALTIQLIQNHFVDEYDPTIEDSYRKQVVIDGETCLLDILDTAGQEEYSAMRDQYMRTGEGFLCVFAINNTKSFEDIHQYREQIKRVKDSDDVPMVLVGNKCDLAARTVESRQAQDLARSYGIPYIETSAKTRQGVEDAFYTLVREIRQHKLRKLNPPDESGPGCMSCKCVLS
Chain of GDP-bound KRAS wild-type protein (P01116 1-188 isoform P01116-2): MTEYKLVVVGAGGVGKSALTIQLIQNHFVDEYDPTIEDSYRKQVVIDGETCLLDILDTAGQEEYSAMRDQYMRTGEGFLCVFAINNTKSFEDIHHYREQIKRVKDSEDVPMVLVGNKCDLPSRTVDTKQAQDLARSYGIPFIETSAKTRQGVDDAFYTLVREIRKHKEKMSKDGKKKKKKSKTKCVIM

Structure (SMILES)	IC50 [1]	IC50 [2]	IC50 [3]	IC50 [5]	IC50 [6]	IC50 [7]	Kd ([8]; Single Cycle Kinetics)	IC50 [9]	Kd ([8]; 1:1 binding model)	NRAS /KRAS [4]	HRAS /KRAS (HRAS wild-type protein)
CCC[C@H]1C(=O)N[C@@H]([C@@H](C)CC)C(=O)N2CCC[C@H]2C(=O)N(C)[C@H]2C/C=C\CCN(C2=O)[C@@H](Cc2ccc(C(F)(F)F)cc2)C(=O)N(C)CC(=O)N[C@@H](CCc2ccc(C(F)(F)F)c(OC)c2)C(=O)N2C[C@H](OCC)C[C@H]2C(=O)OC2(CCC2)C(=O)N(C)[C@@H](C2CCCC2)C(=O)N(C)[C@H](C(=O)N(C)C)CC(=O)N1C [PP3368, (1S,4S,10S,13S,17S,20S,26S,28R,32S,38S,42Z)-20-cyclopentyl-28-ethoxy-32-[2-[3-methoxy-4-(trifluoromethyl)phenyl]ethyl]-N,N,2,14,18,21,36-heptamethyl-10-[(1S)-1-methylpropyl]-3,9,12,15,19,22,25,31,34,37,45-undecaoxo-13-propyl-38-[[4-(trifluoromethyl)phenyl]methyl]spiro[24-oxa-2,8,11,14,18,21,30,33,36,39-decazatetracyclo[37.5.1.0^4,8.0^26,30]pentatetracont-42-ene-23,1'-cyclobutane]-17-carboxamide]	2.8 nM	13.9 nM	22.6 nM	18.6 nM	11.9 nM	42.5 nM	0.57 nM	20.4 nM	–	A (a compound having 10 or more and less than 20 is denoted as A)	A (a compound having 10 or more and less than 20 is denoted as A)
CCC[C@H]1C(=O)N[C@@H]([C@@H](C)CC)C(=O)N(C)CC(=O)N(C)[C@H]2C/C=C\CCN(C2=O)[C@@H](Cc2ccc(C)cc2)C(=O)N(C)CC(=O)N[C@@H](CCc2ccc(C(F)(F)F)c(OC)c2)C(=O)N2C[C@H](OCC)C[C@H]2C(=O)OC2(CCC2)C(=O)N(C)[C@@H](C2CCCC2)C(=O)N(C)[C@H](C(=O)N(C)C)CC(=O)N1C [PP3388, (2S,8S,12R,14S,20S,23S,27S,30S,36S,38Z)-20-cyclopentyl-12-ethoxy-8-[2-[3-methoxy-4-(trifluoromethyl)phenyl]ethyl]-N,N,4,19,22,26,32,35-octamethyl-30-[(1S)-1-methylpropyl]-3,6,9,15,18,21,25,28,31,34,42-undecaoxo-27-propyl-2-(p-tolylmethyl)spiro[16-oxa-1,4,7,10,19,22,26,29,32,35-decazatricyclo[34.5.1.0^10,14]dotetracont-38-ene-17,1'-cyclobutane]-23-carboxamide]	1.2 nM	4.9 nM	4.6 nM	10.5 nM	1.2 nM	6.7 nM	0.16 nM	7.4 nM	–	A (a compound having 10 or more and less than 20 is denoted as A)	B (a compound having 3 or more and less than 10 is denoted as B)
CCC(CC)[C@H]1C(=O)N(C)[C@H](C(=O)N(C)C)CC(=O)N(C)[C@@H](COC)C(=O)N[C@@H]([C@@H](C)CC)C(=O)N(C)CC(=O)N(C)[C@H]2C/C=C\CCN(C2=O)[C@@H](Cc2ccc(C)cc2)C(=O)N(C)CC(=O)N[C@@H](CCc2ccc(C(F)(F)F)c(Cl)c2)C(=O)N2CC3(CC3)C[C@H]2C(=O)NC2(CC(C)(C)C2)C(=O)N1C [PP2967]	5.2 nM	21.5 nM	27.2 nM	61.3 nM	17 nM	57.1 nM	–	35.6 nM	0.41 nM	AA (a compound having 20 or more is denoted as AA)	A (a compound having 10 or more and less than 20 is denoted as A)
CCC[C@H]1C(=O)N[C@@H]([C@@H](C)CC)C(=O)N(C)CC(=O)N(C)[C@H]2C/C=C\CCN(C2=O)[C@@H](Cc2ccc(C(F)(F)F)cc2)C(=O)N(C)CC(=O)N[C@@H](CCc2cc(F)c(C(F)(F)F)c(F)c2)C(=O)N2CC3(CC3)C[C@H]2C(=O)N(C)C2(CCC2)C(=O)N(C)[C@@H](C2CCCC2)C(=O)N(C)[C@H](C(=O)N(C)C)CC(=O)N1C [PP3356]	1 nM	1.3 nM	1.5 nM	4.9 nM	2.3 nM	2.5 nM	0.044 nM	4 nM	–	A (a compound having 10 or more and less than 20 is denoted as A)	A (a compound having 10 or more and less than 20 is denoted as A)
CCO[C@@H]1C[C@H]2C(=O)NC3(CCCC3)C(=O)N(C)[C@@H](C3CCCC3)C(=O)N(C)[C@H](C(=O)N(C)C)CC(=O)N(C)[C@@H](CC(C)C)C(=O)N[C@@H]([C@@H](C)CC)C(=O)N(C)CC(=O)N(C)[C@H]3C/C=C\CCN(C3=O)[C@@H](Cc3ccc(C)cc3)C(=O)N(C)CC(=O)N[C@@H](CCc3cc(F)c(C(F)(F)F)c(F)c3)C(=O)N2C1 [PP3478, (2S,8S,12R,14S,20S,23S,27S,30S,36S,38Z)-20-cyclopentyl-8-[2-[3,5-difluoro-4-(trifluoromethyl)phenyl]ethyl]-12-ethoxy-27-isobutyl-N,N,4,19,22,26,32,35-octamethyl-30-[(1S)-1-methylpropyl]-3,6,9,15,18,21,25,28,31,34,42-undecaoxo-2-(p-tolylmethyl)spiro[1,4,7,10,16,19,22,26,29,32,35-undecazatricyclo[34.5.1.0^10,14]dotetracont-38-ene-17,1'-cyclopentane]-23-carboxamide]	0.9 nM	2.9 nM	5.1 nM	15.1 nM	5.8 nM	14.4 nM	0.11 nM	4 nM	–	A (a compound having 10 or more and less than 20 is denoted as A)	A (a compound having 10 or more and less than 20 is denoted as A)

These reach a lower IC50 [1]. Values come first.

IC50 [1]	IC50 [2]	IC50 [3]	IC50 [5]	IC50 [6]	IC50 [7]	Kd ([8]; Single Cycle Kinetics)	IC50 [9]	Kd ([8]; 1:1 binding model)	Structure (SMILES)	NRAS /KRAS [4]	HRAS /KRAS (HRAS wild-type protein)
0.4 nM	1.8 nM	2.5 nM	3.9 nM	4.1 nM	4.7 nM	0.1 nM	3.9 nM	–	CCO[C@@H]1C[C@H]2C(=O)OC3(CCC3)C(=O)N(C)[C@@H](C3CCCC3)C(=O)N(C)[C@H](C(=O)N(C)C)CC(=O)N(C)[C@@H]([C@@H](C)OC)C(=O)N[C@@H]([C@@H](C)CC)C(=O)N(C)CC(=O)N(C)[C@H]3C/C=C\CCN(C3=O)[C@@H](Cc3ccc(C)cc3)C(=O)N(C)CC(=O)N[C@@H](CCc3ccc(C(F)(F)F)c(OC)c3)C(=O)N2C1 [PP3394, (2S,8S,12R,14S,20S,23S,27S,30S,36S,38Z)-20-cyclopentyl-12-ethoxy-27-[(1R)-1-methoxyethyl]-8-[2-[3-methoxy-4-(trifluoromethyl)phenyl]ethyl]-N,N,4,19,22,26,32,35-octamethyl-30-[(1S)-1-methylpropyl]-3,6,9,15,18,21,25,28,31,34,42-undecaoxo-2-(p-tolylmethyl)spiro[16-oxa-1,4,7,10,19,22,26,29,32,35-decazatricyclo[34.5.1.0^10,14]dotetracont-38-ene-17,1'-cyclobutane]-23-carboxamide]	A (a compound having 10 or more and less than 20 is denoted as A)	A (a compound having 10 or more and less than 20 is denoted as A)
0.4 nM	2.5 nM	2.4 nM	4.7 nM	4.4 nM	7.2 nM	–	3.2 nM	0.04 nM	CCO[C@@H]1C[C@H]2C(=O)NC3(CC(C)(C)C3)C(=O)N(C)[C@@H](C3CCCC3)C(=O)N(C)[C@H](C(=O)N(C)C)CC(=O)N(C)[C@@H]([C@@H](C)OC)C(=O)N[C@@H]([C@@H](C)CC)C(=O)N(C)CC(=O)N(C)[C@H]3C/C=C\CCN(C3=O)[C@@H](Cc3ccc(C(F)(F)F)cc3)C(=O)N(C)CC(=O)N[C@@H](CCc3ccc(C(F)(F)F)c(Cl)c3)C(=O)N2C1 [PP3198, (2S,8S,12R,14S,20S,23S,27S,30S,36S,38Z)-8-[2-[3-chloro-4-(trifluoromethyl)phenyl]ethyl]-20-cyclopentyl-12-ethoxy-27-[(1R)-1-methoxyethyl]-N,N,3',3',4,19,22,26,32,35-decamethyl-30-[(1S)-1-methylpropyl]-3,6,9,15,18,21,25,28,31,34,42-undecaoxo-2-[[4-(trifluoromethyl)phenyl]methyl]spiro[1,4,7,10,16,19,22,26,29,32,35-undecazatricyclo[34.5.1.0^10,14]dotetracont-38-ene-17,1'-cyclobutane]-23-carboxamide]	A (a compound having 10 or more and less than 20 is denoted as A)	A (a compound having 10 or more and less than 20 is denoted as A)
